Reference: the supplement of paper PMC10307832

Tests used:
Assay in all cases: relative viability (nuclei count vs DMSO), 5 days (fraction); higher = more cells survive
[1] = compound: N#CC[C@H](C1CCCC1)n1cc(-c2ncnc3[nH]ccc23)cn1 [Ruxolitinib] + COc1cccc2cc(-c3nc([C@H]4CC[C@H](C(=O)O)CC4)n4ncnc(N)c34)[nH]c12 [OSI-027] (partner 0.5 µM)
Procedure, shortened: (§1)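 Relative viability divides the nuclei count in treated wells by that in vehicle wells. Lung cancer cell lines were seeded in 1536-well plates, dosed by pin tool the next day, and fixed and stained after 5 days in one step with final 0.05% Triton X-100, 1% formaldehyde and 1 ug/ml Hoechst. Dosing was a single drug or a fixed anchor-drug dose plus five library-drug doses (not always all listed) in √10 steps, and values are medians of duplicate plates imaged at 4×.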

[2] = compound: CS(=O)(=O)c1ccc(-c2cnc(N)c(C(=O)Nc3ccccc3)n2)cc1 [VE-821] + CCNC(=O)c1noc(-c2cc(C(C)C)c(O)cc2O)c1-c1ccc(CN2CCOCC2)cc1 [Luminespib] (partner 0.01 µM)
Procedure, shortened: as §1

[3] = compound: CS(=O)(=O)c1ccc(C(=O)Nc2ccc(Cl)c(-c3ccccn3)c2)c(Cl)c1 [Vismodegib] + COc1cc2c(Oc3ccc(NC(=O)C4(C(=O)Nc5ccc(F)cc5)CC4)cc3F)ccnc2cc1OCCCN1CCOCC1 [Foretinib] (partner 0.25 µM)
Procedure, shortened: as §1

[4] = compound: CS(=O)(=O)c1ccc(-c2cnc(N)c(C(=O)Nc3ccccc3)n2)cc1 [VE-821] + Nc1nc2[nH]cc(CCc3ccc(C(=O)N[C@@H](CCC(=O)O)C(=O)O)cc3)c2c(=O)[nH]1 [Pemetrexed] (partner 0.2 µM)
Procedure, shortened: as §1

| Cell Line | relative viability ([1]; first compound 0.08 µM) | relative viability ([1]; first compound 0.253 µM) | relative viability ([1]; first compound 0.8 µM) | relative viability ([1]; first compound 2.53 µM) | relative viability ([1]; first compound 8 µM) | relative viability ([2]; first compound 0.08 µM) | relative viability ([2]; first compound 0.253 µM) | relative viability ([2]; first compound 0.8 µM) | relative viability ([2]; first compound 2.53 µM) | relative viability ([2]; first compound 8 µM) | relative viability ([3]; first compound 0.08 µM) | relative viability ([3]; first compound 0.253 µM) | relative viability ([3]; first compound 2.53 µM) | relative viability ([3]; first compound 8 µM) | relative viability ([4]; first compound 0.08 µM) | relative viability ([4]; first compound 0.253 µM) | relative viability ([4]; first compound 0.8 µM) | relative viability ([4]; first compound 2.53 µM) | relative viability ([4]; first compound 8 µM) | relative viability ([3]; first compound 0.8 µM) |
| --- | --- | --- | --- | --- | --- | --- | --- | --- | --- | --- | --- | --- | --- | --- | --- | --- | --- | --- | --- | --- |
| NCI-H2347 | 0.438 | 0.377 | 0.451 | 0.397 | 0.486 | 0.399 | 0.418 | 0.238 | 0.505 | 0.582 | 1.12 | 0.599 | 0.834 | 0.978 | 0.482 | 0.45 | 0.418 | 0.445 | 0.526 | – |
| NCI-H838 | 0.39 | 0.318 | 0.386 | 0.266 | 0.267 | 0.275 | 0.225 | 0.224 | 0.266 | 0.158 | 0.987 | 0.979 | 1.06 | 1.03 | 0.259 | 0.264 | 0.21 | 0.17 | 0.159 | 0.997 |
| LXF-289 | 0.776 | 0.79 | 0.789 | 0.698 | 0.624 | 0.766 | 0.671 | 0.52 | 0.82 | 0.616 | 0.943 | 0.913 | 0.97 | 0.922 | 0.902 | 0.928 | 0.936 | 1.01 | 0.847 | 1.01 |
| LC-2-ad | – | 0.667 | 0.859 | 0.733 | 0.524 | 1.18 | 1.09 | 1.19 | 1.24 | 1 | 0.924 | 0.848 | 0.847 | 1.02 | 0.265 | 0.286 | 0.272 | 0.264 | 0.24 | 0.893 |
| NCI-H2085 | 0.674 | 0.633 | 0.745 | 0.672 | 0.647 | 0.439 | 0.457 | 0.385 | 0.411 | 0.309 | 0.86 | 0.96 | 0.755 | 0.796 | 0.936 | 0.848 | 0.61 | – | 0.612 | 0.989 |
